Test results: patent US20150329864A1, “DESIGN OF OLIGONUCLEOTIDE ANALOGS AS THERAPEUTIC AGENTS” (SPRING BANK PHARMACEUTICALS, INC., priority 2010, published 2015)
Entries after “also recorded” stand apart in the source; their conditions may differ.

Tests used:
hepatitis B virus (HBV) = test: Effect of i.p. administration on hepatitis B virus in transgenic mice; type: in vivo
Procedure: Compound 5 was evaluated in transgenic mice expressing hepatitis B virus (HBV). […] Its activity was also similar to the adefovir dipivoxil (ADV) anti-HBV activity; however, the two compounds seemed to suppress different HBV DNA species. […] In contrast, Compound 5 appeared to indiscriminately remose all HBV DNA species, including the bands typically left by ADV, which may reflect a different mechanism of action other than classical chain termination. Serum HBe, liver HBs, and HBc were not affected by Compound 5 treatment, which is consistent in transgenic mice with compounds that block viral synthesis “downstream” from mRNA synthesis, such as blockage of polymerase activities. A minimal effective dosage was determined to be between 1.6-0.5 mg/kg/day, which was similar to ADV minimal effective dosage of 1.0 mg/kg/day (Table 8).

macrophages = type: cell-based
RIG-I = target: T1, RIG-I (Homo sapiens, UniProt O95786); test: RIG-I translocation on dsRNA, single-molecule PIFE assay; type: biochemical
T1 sequence (O95786 1-925): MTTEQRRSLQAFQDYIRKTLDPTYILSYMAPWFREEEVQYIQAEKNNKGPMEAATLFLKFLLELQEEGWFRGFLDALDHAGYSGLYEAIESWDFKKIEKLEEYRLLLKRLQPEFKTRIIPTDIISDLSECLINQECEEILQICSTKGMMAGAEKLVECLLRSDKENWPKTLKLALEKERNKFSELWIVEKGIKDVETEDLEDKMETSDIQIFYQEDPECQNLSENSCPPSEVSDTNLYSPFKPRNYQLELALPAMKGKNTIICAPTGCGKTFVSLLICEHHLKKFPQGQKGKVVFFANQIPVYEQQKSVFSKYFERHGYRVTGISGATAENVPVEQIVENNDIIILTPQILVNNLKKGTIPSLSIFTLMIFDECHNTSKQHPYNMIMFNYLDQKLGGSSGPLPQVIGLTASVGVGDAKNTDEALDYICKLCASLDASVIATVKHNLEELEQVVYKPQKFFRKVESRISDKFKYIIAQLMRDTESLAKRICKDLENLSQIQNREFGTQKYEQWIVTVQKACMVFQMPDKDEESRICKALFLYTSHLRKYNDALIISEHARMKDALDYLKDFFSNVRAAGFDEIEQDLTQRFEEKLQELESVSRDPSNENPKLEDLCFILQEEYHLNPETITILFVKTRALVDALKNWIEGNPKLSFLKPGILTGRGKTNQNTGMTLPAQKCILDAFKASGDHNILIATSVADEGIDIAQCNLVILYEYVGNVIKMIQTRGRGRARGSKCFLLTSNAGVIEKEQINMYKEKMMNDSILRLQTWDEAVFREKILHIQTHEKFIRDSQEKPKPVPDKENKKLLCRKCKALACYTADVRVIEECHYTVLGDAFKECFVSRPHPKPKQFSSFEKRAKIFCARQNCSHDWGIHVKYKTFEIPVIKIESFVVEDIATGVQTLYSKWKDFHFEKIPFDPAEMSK
Procedure: An in vitro single-molecule fluorescence assay termed PIFE (protein induced fluorescence enhancement) was employed to monitor such movement (Myong, S. et al., Science, 323, 1070, 2009).
For quantitation of RIG-I translocation, Single molecule PIFE yields were estimated. Single molecule PIFE yields are obtained from several hundred molecules simultaneously, allowing statistically reliable data collection.
The translocation as above was carried out using different concentrations of nucleotide compound.
A standard dsRNA (25 bp) was used as a main substrate for RIG-I translocation assay. […] The ratio between rapid (stimulated) translocation and slow translocation would be accounted for in the estimation of compound strength. In order to quantify the affinity of the compound to RIG-I or to RNA substrate, various concentrations of the compound (1-100 μM range) were used in the assay. This enabled the calculation of the association/dissociation constant for each compound, which was a useful measure to apply in cell-based evaluation of compound potency.
The same translocation assay was used on dsRNA, which contains […] moiety with and without the compound.

HBV WT = test: HepG2.2.15 cell-based HBV assay, wild type; conditions: Hepatitis B virus
Procedure: Selected compounds were evaluated in in vitro cell-based HepG2.2.15 HBV assay.
Antiviral analysis. For the antiviral analyses, confluent cultures of 2.2.1.5 cells were maintained on 96-well flat-bottomed tissue culture plates in RPMI1640 medium with 2% fetal bovine serum. Cultures (6 per each test concentration on two replicate plates) were treated with 9 consecutive daily doses of the test compounds. Medium was changed daily with fresh test compounds. HBV nucleic acid and protein levels were measured 24 hours after the last treatment. Extracellular (virion) HBV DNA levels were assessed by quantitative blot hybridization. Intracellular HBV DNA levels were measured by quantitative Southern blot hybridization.
The uptake of neutral red dye was used to determine the relative level of toxicity 24 hours following the last treatment. The absorbance of internalized dye at […] (A510) was used for the semi-quantitative analysis. Values are presented as a percentage of the average A510 values (±standard deviations) in 9 separate cultures of untreated cells maintained on the 96-well plates seeded at the same time with the identical pool of stock cells used for the antiviral analyses and maintained in an identical manner. A total of 3 cultures were treated with each concentration of the test compound.

[1] = Weight change and apparent toxicity in orally treated HBV transgenic mice; type: in vivo
Procedure: Compound 6k was evaluated for anti-HBV activity in the transgenic mouse model of HBV infection. Male transgenic mouse infected with HBV, with age ranging from 78 to 108 days were used. Compound 6k was initially evaluated at a single dose of 300 mg/kg, administered daily for 14 days by oral gavage. The compounds were administered in citric acid and adefovir dipivoxil was used as a positive control. A control group which received vehicle was used a negative control. Following the treatment, mice were sacrificed and liver tissue analyzed for HBV DNA using Southern blot analysis. The data was statistically evaluated using Kruskall-Wallis non-parametric ANOVA.
(a) Male and female transgenic mice (founder 1.3.32) were infected with human hepatitis B virus. Following infection, animals were orally administered Compound 6k, or a placebo of 0.05 M citric acid, pH 2.0 once daily for 14 days. Dosage was 300 mg/kg/d for Compound 6k. The positive control, ADV, was administered at 10 mg/kg/d.
Statistical significance is indicated as *P≦0.05, **P≦0.01, ***P≦0.001 compared to placebo vehicle.

HBV-3TC-R4 LMMV = type: cell-based; conditions: Hepatitis B virus
[2] = 100 mg/kg/d i.p. once daily 14 days, group listed with C:E:S vehicle
[3] = 100 mg/kg/d i.p. once daily 14 days, group listed with saline placebo

Row | SMILES | Liver HBV DNA (mean pg viral/μg cellular DNA ± stdev) (hepatitis B virus (HBV); [2]) | Liver HBV RNA (mean relative units ± stdev) (hepatitis B virus (HBV); [2]) [relative units] | Liver HBeAg (mean stained cells/100 × field ± stdev) (hepatitis B virus (HBV); [2]) [stained cells/100 × field] | Serum HBV DNA (mean log10 genome equivalents/mL serum ± stdev) (hepatitis B virus (HBV); [2]) | Serum HBeAg (mean ng/mL ± stdev) (hepatitis B virus (HBV); [2]) [ng/mL] | Serum HBsAg (mean ng/mL ± stdev) (hepatitis B virus (HBV); [2]) [ng/mL] | Liver HBV DNA (mean pg viral/μg cellular DNA ± stdev) (hepatitis B virus (HBV); [3]) | Serum HBV DNA (mean log10 genome equivalents/mL serum ± stdev) (hepatitis B virus (HBV); [3]) | effect on liver HBV DNA (hepatitis B virus (HBV); i.p. once daily 14 days, 100 mg/kg/day, saline or cremaphor:ethanol:saline vehicles) | effect on serum HBe, liver HBs, and HBc (hepatitis B virus (HBV); i.p. treatment) | induction of IL-2 (macrophages) | RIG-I translocation on dsRNA (activity in words) (RIG-I; PIFE assay) | proportion of fast RIG-I translocation (RIG-I; concentration increased from 5 μM up to 170 μM) | EC50 (HBV WT) [µM] | EC90 (HBV WT) [µM] | % weight change ± sd ([1]; 300 mg/kg/d, oral, once daily 14 days) [%] | apparent toxicity ([1]; high doses employed, oral once daily 14 days) | EC50 (HBV-3TC-R4 LMMV) [µM] | EC90 (HBV-3TC-R4 LMMV) [µM]
1 | CO[C@H]1C(OP(=O)(S)OC[C@H]2O[C@@H](n3cnc4c(N)ncnc43)CC2O)[C@@H](CO)O[C@H]1n1ccc(=O)[nH]c1=O (stereo partly shown) [Compound 5, 3-dApsU2′-OMe] | 1.7 ± 1.5 (9) pg viral/μg cellular DNA | 1.7 ± 0.3 | 24 ± 15 | 5.4 ± 0.6 (7) log10 genome equivalents/mL serum | 1241 ± 279 | 28 ± 15 | 0.3 ± 0.4 (8) pg viral/μg cellular DNA | 5.0 ± 0.3 (8) log10 genome equivalents/mL serum | significantly reduced liver HBV DNA | not affected | showed induction of IL-2 | rapid translocation on dsRNA in a dose-dependent manner; also recorded: strong activators of RIG-I translocation | corresponding increase in the proportion of fast translocation |  |  |  |  |  | 
2 | CO[C@H]1C(OP(=O)(OC[C@H]2O[C@@H](n3cnc4c(N)ncnc43)CC2O)SCOC(=O)OC(C)C)[C@@H](CO)O[C@H]1n1ccc(=O)[nH]c1=O (stereo partly shown) [Compound 6k] |  |  |  |  |  |  |  |  |  |  |  |  |  | 2.5 | 8.5 | 4.3 ± 1.8 | no apparent toxicity | 3.1 | 9.3
